The subject of this assay is chPylRS. As to the kind of experiment: aminoacylation of […]-labeled tRNA. The note with it: read-out: KM (mM), ncAA; M. mazei tRNA(Pyl) transcript, 10 mM ATP, 10 mM MgCl2, pH 7.2, 37 °C. It counts as biochemical, Methanosarcina mazei; Methanosarcina barkeri.

Broadly, the Km is the substrate concentration at which the rate is half of its maximum. Regarding `C[C@@H]1CC=N[C@H]1C(=O)NCCCC[C@H](N)C(=O)O` [compound 1, Pyl], the Km came to 0.0076 ± 0.0002 mM.
As for `CC(C)(C)OC(=O)NCCCC[C@H](N)C(=O)O` [compound 12, BocK], the Km was 2.91 ± 0.1 mM.

The values are drawn from publication PMC5698177 (Nature chemical biology, 2017).
